Measured values taken from patent US20210253568A1, “AZAINDOLE DERIVATIVES AS RHO-KINASE INHIBITORS” (CHIESI FARMACEUTICI S.p.A., priority 2018, published 2021).

Assays:
ROCK 1 = ROCK 1 (Homo sapiens, UniProt Q13464); assay: In vitro Rho kinase inhibitory activity assay (ADP-Glo), Rho kinase 1; assay type: biochemical; settings: Ki by Cheng-Prusoff from IC50; 10 μM ATP, 25° C., expressed as range of activity
Method: (§1) The effectiveness of compounds of the present invention to inhibit Rho kinase activity can be determined in a 10 μl assay containing 40 mM Tris pH7.5, 20 mM MgCl2 0.1 mg/mi BSA, 50 μM DTT and 2.5 μM peptide substrate (Myelin Basic Protein) using an ADP-Glo kit (Promega). Compounds were dissolved in DMSO such that the final concentration of DMSO was 1% in the assay. All reactions/incubations are performed at 25° C. Compound (2 ul) and either Rho kinase 1 or 2 (4 μl) were mixed and incubated for 30 mins. Reactions were initiated by addition of ATP (4 μl) such that the final concentration of ATP in the assay was 10 μM. After a 1 hour incubation 10 μl of ADP-Glo Reagent was added and after a further 45 minute incubation 20 ul of Kinase Detection Buffer was added and the mixture incubated for a further 30 minutes. The luminescent signal was measured on a luminometer. […] Compounds were tested in dose-response format and the inhibition of kinase activity was calculated at each concentration of compound. To determine the IC50 (concentration of compound required to inhibit 50% of the enzyme activity) data were fit to a plot of % inhibition vs Log10 compound concentration using a sigmoidal fit with a variable slope and fixing the maximum to 100% and the minimum to 0%. To determine the Ki values the Cheng-Prusoff equation was utilized (Ki=IC50/(1+[S]/Km).

ROCK 2 = ROCK 2 (Homo sapiens, UniProt O75116); assay: In vitro Rho kinase inhibitory activity assay (ADP-Glo), Rho kinase 2; assay type: biochemical; settings: Ki by Cheng-Prusoff from IC50; 10 μM ATP, 25° C., expressed as range of activity
Method: as §1

Chain of ROCK 1 (Q13464 whole entry): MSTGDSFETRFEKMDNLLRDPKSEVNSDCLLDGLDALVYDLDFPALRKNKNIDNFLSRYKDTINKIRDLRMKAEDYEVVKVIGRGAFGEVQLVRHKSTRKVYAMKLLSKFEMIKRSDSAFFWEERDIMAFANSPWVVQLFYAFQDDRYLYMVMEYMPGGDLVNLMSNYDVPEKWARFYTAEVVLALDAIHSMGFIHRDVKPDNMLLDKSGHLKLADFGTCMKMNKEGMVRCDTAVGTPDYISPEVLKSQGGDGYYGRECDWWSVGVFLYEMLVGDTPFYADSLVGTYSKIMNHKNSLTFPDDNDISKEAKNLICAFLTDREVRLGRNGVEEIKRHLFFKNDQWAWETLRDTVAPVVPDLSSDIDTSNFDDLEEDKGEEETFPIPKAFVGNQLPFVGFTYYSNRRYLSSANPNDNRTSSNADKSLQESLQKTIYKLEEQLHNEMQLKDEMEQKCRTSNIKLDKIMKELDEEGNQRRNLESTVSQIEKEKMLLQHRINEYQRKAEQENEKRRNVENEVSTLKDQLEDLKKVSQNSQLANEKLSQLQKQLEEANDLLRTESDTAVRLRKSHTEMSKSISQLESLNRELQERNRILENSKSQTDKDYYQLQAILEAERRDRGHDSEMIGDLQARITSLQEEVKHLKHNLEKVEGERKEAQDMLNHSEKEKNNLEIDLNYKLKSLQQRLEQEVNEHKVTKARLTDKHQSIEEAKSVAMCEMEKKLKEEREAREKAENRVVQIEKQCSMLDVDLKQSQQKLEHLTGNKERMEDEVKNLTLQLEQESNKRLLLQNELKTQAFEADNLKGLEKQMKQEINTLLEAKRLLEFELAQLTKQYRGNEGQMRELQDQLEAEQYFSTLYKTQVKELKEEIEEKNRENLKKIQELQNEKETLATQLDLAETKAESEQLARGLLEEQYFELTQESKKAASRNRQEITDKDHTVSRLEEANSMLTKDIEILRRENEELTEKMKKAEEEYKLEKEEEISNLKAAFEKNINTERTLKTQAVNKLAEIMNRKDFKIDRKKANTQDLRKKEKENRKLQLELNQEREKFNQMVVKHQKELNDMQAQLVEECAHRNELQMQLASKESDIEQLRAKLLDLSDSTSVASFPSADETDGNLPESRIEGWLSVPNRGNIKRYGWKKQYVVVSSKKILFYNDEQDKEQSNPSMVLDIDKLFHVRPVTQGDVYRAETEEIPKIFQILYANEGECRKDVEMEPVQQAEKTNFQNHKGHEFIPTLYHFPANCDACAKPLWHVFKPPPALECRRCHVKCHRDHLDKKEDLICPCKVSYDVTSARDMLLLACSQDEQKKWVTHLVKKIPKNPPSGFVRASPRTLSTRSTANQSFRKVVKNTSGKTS
Chain of ROCK 2 (O75116 whole entry): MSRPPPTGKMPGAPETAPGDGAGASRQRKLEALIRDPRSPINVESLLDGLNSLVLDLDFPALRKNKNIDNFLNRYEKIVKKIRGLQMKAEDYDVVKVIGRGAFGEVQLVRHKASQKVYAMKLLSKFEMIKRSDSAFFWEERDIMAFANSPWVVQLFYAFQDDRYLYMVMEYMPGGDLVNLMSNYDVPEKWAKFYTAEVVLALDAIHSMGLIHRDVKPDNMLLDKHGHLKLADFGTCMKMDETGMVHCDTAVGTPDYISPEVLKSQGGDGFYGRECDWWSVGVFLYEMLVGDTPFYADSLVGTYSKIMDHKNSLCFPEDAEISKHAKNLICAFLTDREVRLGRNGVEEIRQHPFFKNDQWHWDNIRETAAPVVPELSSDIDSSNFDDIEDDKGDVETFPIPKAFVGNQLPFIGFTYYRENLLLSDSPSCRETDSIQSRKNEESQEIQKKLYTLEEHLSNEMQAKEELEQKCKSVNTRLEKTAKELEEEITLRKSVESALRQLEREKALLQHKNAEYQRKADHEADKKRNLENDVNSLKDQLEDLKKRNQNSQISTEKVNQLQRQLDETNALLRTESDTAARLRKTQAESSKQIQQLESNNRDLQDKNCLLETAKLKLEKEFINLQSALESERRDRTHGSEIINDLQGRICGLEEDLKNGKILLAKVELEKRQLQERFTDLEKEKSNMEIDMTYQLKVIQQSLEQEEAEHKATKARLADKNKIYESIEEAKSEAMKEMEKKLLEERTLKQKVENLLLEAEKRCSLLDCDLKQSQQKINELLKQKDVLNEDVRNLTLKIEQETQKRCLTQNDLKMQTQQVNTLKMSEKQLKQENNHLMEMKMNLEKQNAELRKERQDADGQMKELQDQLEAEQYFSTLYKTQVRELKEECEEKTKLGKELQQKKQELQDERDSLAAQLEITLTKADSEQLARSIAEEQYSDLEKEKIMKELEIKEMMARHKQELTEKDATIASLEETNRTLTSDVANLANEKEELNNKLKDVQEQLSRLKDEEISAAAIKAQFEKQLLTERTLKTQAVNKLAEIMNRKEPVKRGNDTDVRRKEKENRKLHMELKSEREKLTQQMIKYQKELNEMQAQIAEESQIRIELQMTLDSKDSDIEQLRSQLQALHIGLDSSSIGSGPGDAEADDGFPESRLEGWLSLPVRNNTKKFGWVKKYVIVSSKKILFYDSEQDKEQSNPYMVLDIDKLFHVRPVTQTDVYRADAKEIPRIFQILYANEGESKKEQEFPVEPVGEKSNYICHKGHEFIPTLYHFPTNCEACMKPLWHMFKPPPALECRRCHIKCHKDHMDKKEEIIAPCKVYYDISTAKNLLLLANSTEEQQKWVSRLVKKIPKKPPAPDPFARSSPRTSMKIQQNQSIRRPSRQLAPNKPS

| Ki (ROCK 1) [nM] | Ki (ROCK 2) [nM] | SMILES |
| --- | --- | --- |
| < 3 | < 3 | Cc1ccc(S(=O)(=O)CCNc2cc(-c3c[nH]c4nccc(Oc5c(F)cc(CN)cc5F)c34)ncn2)cc1 [Example 4, 6-(4-(4-(aminomethyl)-2,6-difluorophenoxy)-1H-pyrrolo[2,3-b]pyridin-3-yl)-N-(2-tosylethyl)pyrimidin-4-amine] |
| 3 to 30 | < 3 | c1ccc(CNc2cc(-c3c[nH]c4nccc(Oc5ccc6c(c5)CNCC6)c34)on2)cc1 [Example 9, N-benzyl-5-(4-((1,2,3,4-tetrahydroisoquinolin-7-yl)oxy)-1H-pyrrolo[2,3-b]pyridin-3-yl)isoxazol-3-amine] |
| 3 to 30 | < 3 | NCc1ccc(Oc2ccnc3[nH]cc(-c4cnn(CC5CCOCC5)c4)c23)c(F)c1 [Example 24, (3-fluoro-4-((3-(1-((tetrahydro-2H-pyran-4-yl)methyl)-1H-pyrazol-4-yl)-1H-pyrrolo[2,3-b]pyridin-4-yl)oxy)phenyl)methanamine] |
| 3 to 30 | < 3 | NCc1ccc(Oc2ccnc3[nH]cc(-c4ccnc(NCc5ccccc5)c4)c23)c(F)c1 [Example 33, 4-(4-(4-(aminomethyl)-2-fluorophenoxy)-1H-pyrrolo[2,3-b]pyridin-3-yl)-N-benzylpyridin-2-amine] |
| 3 to 30 | < 3 | COCCNc1cc(-c2c[nH]c3nccc(Oc4ccc5c(c4)CNCC5)c23)ccn1 [Example 20, N-(2-methoxyethyl)-4-(4-((1,2,3,4-tetrahydroisoquinolin-7-yl)oxy)-1H-pyrrolo[2,3-b]pyridin-3-yl)pyridin-2-amine] |
| < 3 | < 3 | CC(C)OCC(=O)Nc1cc(-c2c[nH]c3nccc(Oc4ccc5c(c4)CNCC5)c23)ccn1 [Example 42, 2-isopropoxy-N-(4-(4-((1,2,3,4-tetrahydroisoquinolin-7-yl)oxy)-1H-pyrrolo[2,3-b]pyridin-3-yl)pyridin-2-yl)acetamide] |
| < 3 | < 3 | c1cc(-c2c[nH]c3nccc(Oc4ccc5c(c4)CNCC5)c23)cc(N2CCOCC2)n1 [Example 17, 4-(4-(4-((1,2,3,4-tetrahydroisoquinolin-7-yl)oxy)-1H-pyrrolo[2,3-b]pyridin-3-yl)pyridin-2-yl)morpholine] |
| 3 to 30 | < 3 | CC1(C)CCN(C(=O)Nc2cc(-c3c[nH]c4nccc(Oc5ccc6c(c5)CNCC6)c34)ccn2)CC1 [Example 46, 4,4-dimethyl-N-(4-(4-((1,2,3,4-tetrahydroisoquinolin-7-yl)oxy)-1H-pyrrolo[2,3-b]pyridin-3-yl)pyridin-2-yl)piperidine-1-carboxamide] |
| < 3 | < 3 | O=C(NC1CC1)C1CCN(c2cc(-c3c[nH]c4nccc(Oc5ccc6c(c5)CNCC6)c34)ccn2)C1 (stereo not drawn) [Example 10, N-cyclopropyl-1-(4-(4-((1,2,3,4-tetrahydroisoquinolin-7-yl)oxy)-1H-pyrrolo[2,3-b]pyridin-3-yl)pyridin-2-yl)pyrrolidine-3-carboxamide] |
| < 3 | < 3 | O=C(Nc1cc(-c2c[nH]c3nccc(Oc4ccc5c(c4)CNCC5)c23)ccn1)C1CCCCC1 [Example 40, N-(4-(4-((1,2,3,4-tetrahydroisoquinolin-7-yl)oxy)-1H-pyrrolo[2,3-b]pyridin-3-yl)pyridin-2-yl)cyclohexanecarboxamide] |
| < 3 | < 3 | c1cc(-c2c[nH]c3nccc(Oc4ccc5c(c4)CNCC5)c23)cc(NCc2nccs2)n1 [Example 35, 4-(4-((1,2,3,4-tetrahydroisoquinolin-7-yl)oxy)-1H-pyrrolo[2,3-b]pyridin-3-yl)-N-(thiazol-2-ylmethyl)pyridin-2-amine] |
| < 3 | < 3 | NCc1cc(F)c(Oc2ccnc3[nH]cc(-c4ccnc(NCc5cccnc5)c4)c23)c(F)c1 [Example 7, 4-(4-(4-(aminomethyl)-2,6-difluorophenoxy)-1H-pyrrolo[2,3-b]pyridin-3-yl)-N-(pyridin-3-ylmethyl)pyridin-2-amine] |
